Laboratory results reported in ChEMBL document CHEMBL2412992, “Fluorescent ligands for adenosine receptors” (Bioorg Med Chem Lett, 2013).
The source made the active and inactive calls. The rule behind the calls is not given here.

Tests used:
Adenosine receptor A3 [1] = target: T1, Adenosine receptor A3 (Homo sapiens, UniProt P0DMS8); assay type: cell-based, CHO
T1 sequence (P0DMS8 whole entry): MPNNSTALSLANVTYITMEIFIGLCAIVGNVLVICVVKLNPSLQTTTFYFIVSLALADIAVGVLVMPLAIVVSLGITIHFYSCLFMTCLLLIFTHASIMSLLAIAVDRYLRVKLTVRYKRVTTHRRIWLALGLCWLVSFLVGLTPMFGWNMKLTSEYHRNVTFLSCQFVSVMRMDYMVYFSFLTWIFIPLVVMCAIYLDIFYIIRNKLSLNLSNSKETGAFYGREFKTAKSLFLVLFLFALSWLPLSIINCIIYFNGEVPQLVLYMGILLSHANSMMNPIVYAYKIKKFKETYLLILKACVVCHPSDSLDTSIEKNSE

Adenosine receptor A2a [2] = target: T2, Adenosine receptor A2a (Homo sapiens, UniProt P29274); assay: Displacement of [3H]CGS21680 from human adenosine A2A receptor expressed in HEK293 cells after 60 mins by […] analysis; assay type: cell-based
T2 sequence (P29274 whole entry): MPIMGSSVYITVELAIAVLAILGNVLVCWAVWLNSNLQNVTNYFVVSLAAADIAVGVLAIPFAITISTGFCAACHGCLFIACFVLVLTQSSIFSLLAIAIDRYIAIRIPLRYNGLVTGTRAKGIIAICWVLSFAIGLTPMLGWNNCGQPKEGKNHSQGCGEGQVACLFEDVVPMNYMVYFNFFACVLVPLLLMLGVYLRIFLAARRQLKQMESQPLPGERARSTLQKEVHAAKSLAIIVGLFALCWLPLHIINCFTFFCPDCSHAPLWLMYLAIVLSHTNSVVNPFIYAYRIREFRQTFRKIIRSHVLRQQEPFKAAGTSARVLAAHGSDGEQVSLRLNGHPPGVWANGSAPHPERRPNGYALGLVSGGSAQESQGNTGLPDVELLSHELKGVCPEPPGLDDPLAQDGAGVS

Adenosine receptor A1 [3] = target: T3, Adenosine receptor A1 (Homo sapiens, UniProt P30542); assay: Displacement of [3H]R-PIA from human adenosine A1 receptor expressed in CHO cells after 60 mins by […] analysis; assay type: cell-based
T3 sequence (P30542 whole entry): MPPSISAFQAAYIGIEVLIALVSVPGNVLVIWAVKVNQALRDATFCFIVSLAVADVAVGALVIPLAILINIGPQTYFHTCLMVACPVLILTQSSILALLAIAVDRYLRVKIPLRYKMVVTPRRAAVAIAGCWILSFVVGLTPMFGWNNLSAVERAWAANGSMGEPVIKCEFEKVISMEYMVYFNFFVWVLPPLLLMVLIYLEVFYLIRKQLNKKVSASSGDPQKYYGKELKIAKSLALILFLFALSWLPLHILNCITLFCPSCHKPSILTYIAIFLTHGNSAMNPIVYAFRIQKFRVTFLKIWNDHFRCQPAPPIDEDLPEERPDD

[4] = target: T4, Adenosine receptor A1 (Homo sapiens) (UniProt P30542); assay: Competitive antagonist activity at GFP-tagged adenosine A1 receptor (unknown origin) expressed in CHO cells assessed as stimulation of inositol phosphate accumulation by scintillation counting analysis; assay type: functional, cell-based
T4 sequence (whole entry): T3 sequence (P30542 whole entry)

[5] = target: T4, Adenosine receptor A1 (Homo sapiens); assay: Competitive antagonist activity at GFP-tagged adenosine A1 receptor (unknown origin) expressed in CHO cells assessed as inhibition of forskolin-stimulated cAMP accumulation by liquid scintillation counting analysis; assay type: functional, cell-based
Adenosine receptor A1 [6] = target: T5, Adenosine receptor A1 (Bos taurus, UniProt P28190); assay: Displacement of [3H]ADAC from adenosine A1 receptor in bovine cerebral cortical membranes after 120 mins; assay type: cell membranes
T5 sequence (P28190 whole entry): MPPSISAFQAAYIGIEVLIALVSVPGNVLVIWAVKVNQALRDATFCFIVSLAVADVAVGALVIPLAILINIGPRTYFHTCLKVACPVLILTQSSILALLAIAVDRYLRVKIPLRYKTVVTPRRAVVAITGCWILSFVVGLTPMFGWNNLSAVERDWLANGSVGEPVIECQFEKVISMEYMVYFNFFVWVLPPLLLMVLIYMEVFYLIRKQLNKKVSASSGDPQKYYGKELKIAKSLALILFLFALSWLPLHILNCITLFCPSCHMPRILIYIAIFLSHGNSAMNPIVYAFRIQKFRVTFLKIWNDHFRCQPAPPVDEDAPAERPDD

Adenosine receptor A1 [7] = target: T6, Adenosine receptor A1 (Rattus norvegicus, UniProt P25099); assay: Displacement of [3H]ADAC from adenosine A1 receptor in rat cerebral cortical membranes after 120 mins; assay type: cell membranes, Membrane
T6 sequence (P25099 whole entry): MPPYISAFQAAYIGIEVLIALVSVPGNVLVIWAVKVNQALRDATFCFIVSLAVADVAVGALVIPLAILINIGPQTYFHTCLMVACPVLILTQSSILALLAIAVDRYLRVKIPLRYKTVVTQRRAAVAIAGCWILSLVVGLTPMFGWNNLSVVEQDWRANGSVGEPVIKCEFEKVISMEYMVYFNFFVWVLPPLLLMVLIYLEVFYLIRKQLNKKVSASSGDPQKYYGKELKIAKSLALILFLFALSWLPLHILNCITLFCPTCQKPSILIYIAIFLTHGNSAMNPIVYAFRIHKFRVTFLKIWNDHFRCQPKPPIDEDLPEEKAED

[8] = target: T4, Adenosine receptor A1 (Homo sapiens); assay: Displacement of [3H]DPCPX from human adenosine A1 receptor expressed in CHO cells up to 0.1 mM after 2 hrs by scintillation counting analysis; assay type: cell-based
Adenosine receptor A2a [9] = target: T2, Adenosine receptor A2a; assay: Displacement of [3H]CGS21680 from human adenosine A2A receptor expressed in HEK293 cells at 10 uM after 60 mins by […] analysis relative to control; assay type: cell-based
[10] = target: T4, Adenosine receptor A1 (Homo sapiens); assay: Displacement of [3H]R-PIA from human adenosine A1 receptor expressed in CHO cells at 10 uM after 60 mins by […] analysis relative to control; assay type: cell-based
Adenosine receptor A3 [11] = target: T1, Adenosine receptor A3; assay type: cell-based, CHO; remark: listed apart in the source
Adenosine receptor A2a [12] = target: T2, Adenosine receptor A2a; assay: Displacement of [3H]CGS21680 from adenosine A2A receptor in human striatal membranes; assay type: cell membranes, Striatum, Membrane
Adenosine receptor A1 [13] = target: T3, Adenosine receptor A1; assay: Displacement of [3H]DPCPX from adenosine A1 receptor in human cortical membranes; assay type: cell membranes
Adenosine receptor A3 [14] = target: T1, Adenosine receptor A3
Description: Competitive binding affinity to human adenosine A3 receptor expressed in CHO cells after 90 mins by flow cytometric analysis in presence of MRS5449

Adenosine receptor A3 [15] = target: T1, Adenosine receptor A3; assay: biochemical
Description: (§1) Displacement of [125I]I-AB-MECA from human adenosine A3 receptor expressed in CHO cells after 90 mins by gamma counting analysis

Adenosine receptor A1 [16] = target: T3, Adenosine receptor A1; assay: Antagonist activity at human adenosine A1 receptor expressed in CHO cells coexpressing cAMP response element assessed as inhibition of agonist-induced response by SPAP reporter gene assay in presence of forskolin; assay type: functional, cell-based
Adenosine receptor A2a [17] = target: T2, Adenosine receptor A2a; assay: Binding affinity to human adenosine A2A receptor expressed in HEK293 cells by fluorescence polarization assay; assay type: cell-based
Adenosine receptor A3 [18] = target: T1, Adenosine receptor A3; remark: listed apart in the source
Description: as §1

Cn1cc2c(nc(NNC(=S)Nc3ccc(C4c5ccc(O)cc5OC5=CC(=O)C=CC54)c(C(=O)O)c3)n3nc(-c4ccco4)nc23)n1 (stereo not given)
Ki (Adenosine receptor A3 [1]): 794 nM
Ki (Adenosine receptor A2a [2]): 933 nM
Ki (Adenosine receptor A1 [3]): 9550 nM

CCCn1c(=O)c2[nH]c(-c3ccc(OCC(=O)NCCNC(=O)CCCCCNC(=O)COc4ccc(/C=C/C5=[N+]6C(=Cc7ccc(-c8cccs8)n7[B-]6(F)F)C=C5)cc4)cc3)nc2n(CCC)c1=O
pKb [4]: 6.5
pKb [5]: 6.4

O=C(Cc1ccc(NC(=O)Cc2ccc(Nc3ncnc4c3ncn4[C@@H]3O[C@H](CO)[C@@H](O)[C@H]3O)cc2)cc1)NCCNc1ccc([N+](=O)[O-])c2nonc12
Ki (Adenosine receptor A1 [6]): 1.62 nM
Ki (Adenosine receptor A1 [7]): 4.37 nM

CCNC(=O)[C@H]1O[C@@H](n2cnc3c(NCCCCNC(=O)CCC4=[N+]5C(=Cc6c(C)cc(C)n6[B-]5(F)F)C=C4)ncnc32)[C@H](O)[C@@H]1O
Activity [8]: inactive

Cn1cc2c(nc(NCCOCCOCCNC(=S)Nc3ccc(C4c5ccc(O)cc5OC5=CC(=O)C=CC54)c(C(=O)O)c3)n3nc(-c4ccco4)nc23)n1 (stereo not given)
inhibition (Adenosine receptor A2a [9]): 30%
inhibition [10]: 0%
Ki (Adenosine receptor A3 [1]): 9550 nM

CCNC(=O)[C@H]1O[C@@H](n2cnc3c(NCCCCCCCCNc4ccc([N+](=O)[O-])c5nonc45)ncnc32)[C@H](O)[C@@H]1O
Ki (Adenosine receptor A3 [11]): 7.41 nM
Ki (Adenosine receptor A2a [12]): 5130 nM
Ki (Adenosine receptor A1 [13]): 3550 nM

CCCN1C(=O)C2NC(c3ccc(OCC(=O)NCCNC(=O)NCC(=O)NCC(=O)NCC(=S)c4ccc(C5c6ccc(O)cc6OC6=CC(=O)C=CC65)c(C(=O)O)c4)cc3)=NC2N(CCC)C1=O (stereo not given)
Ki (Adenosine receptor A1 [6]): 17 nM
Ki (Adenosine receptor A1 [7]): 97.7 nM

O=C1C=CC2C(=C1)Oc1cc(O)ccc1C2c1ccc(NC(=S)NCCNC(=O)Cc2ccc(NC(=O)Cc3ccc(Nc4ncnc5c4ncn5[C@@H]4O[C@H](CO)[C@@H](O)[C@H]4O)cc3)cc2)cc1C(=O)O (stereo not given in full)
Ki (Adenosine receptor A1 [6]): 2.88 nM
Ki (Adenosine receptor A1 [7]): 7.24 nM

Cn1cc2c(nc(NCCCCCNC(=S)Nc3ccc(C4c5ccc(O)cc5OC5=CC(=O)C=CC54)c(C(=O)O)c3)n3nc(-c4ccco4)nc23)n1 (stereo not given)
inhibition [10]: 9%
Ki (Adenosine receptor A3 [1]): 5620 nM
Ki (Adenosine receptor A2a [2]): 1780 nM

CCNC(=O)[C@H]1O[C@@H](n2cnc3c(NCCNc4ccc([N+](=O)[O-])c5nonc45)ncnc32)[C@H](O)[C@@H]1O
Ki (Adenosine receptor A3 [11]): 56.2 nM
Ki (Adenosine receptor A2a [12]): 6760 nM
Ki (Adenosine receptor A1 [13]): > 10000 nM

CC[C@@H]1CN2C(=O)N(C)c3nc(-c4cc(Cl)cc(Cl)c4Cl)[nH]c3C2=N1
Ki (Adenosine receptor A3 [14]): 9.54 nM
Ki (Adenosine receptor A3 [15]): 0.441 nM

Cn1cc2c(nc(NCCCCNC(=S)Nc3ccc(C4c5ccc(O)cc5OC5=CC(=O)C=CC54)c(C(=O)O)c3)n3nc(-c4ccco4)nc23)n1 (stereo not given)
inhibition [10]: 7%
Ki (Adenosine receptor A3 [1]): 724 nM
Ki (Adenosine receptor A2a [2]): 468 nM

CCNC(=O)[C@H]1O[C@@H](n2cnc3c(NCCCCCCNc4ccc([N+](=O)[O-])c5nonc45)ncnc32)[C@H](O)[C@@H]1O
Ki (Adenosine receptor A3 [11]): 24 nM
Ki (Adenosine receptor A2a [12]): 6170 nM
Ki (Adenosine receptor A1 [13]): > 10000 nM

CCNC(=O)[C@H]1O[C@@H](n2cnc3c(NCCCCCCCCCCNc4ccc([N+](=O)[O-])c5nonc45)ncnc32)[C@H](O)[C@@H]1O
Ki (Adenosine receptor A3 [11]): 28.2 nM
Ki (Adenosine receptor A2a [12]): 6170 nM
Ki (Adenosine receptor A1 [13]): 6460 nM

CCNC(=O)[C@H]1O[C@@H](n2cnc3c(NCCCCNC(=O)COc4ccc(/C=C/C5=[N+]6C(=Cc7ccc(-c8cccs8)n7[B-]6(F)F)C=C5)cc4)ncnc32)[C@H](O)[C@@H]1O
Kd (Adenosine receptor A1 [16]): 16.2 nM

CCNC(=O)[C@H]1O[C@@H](n2cnc3c(NCCCNC(=O)COc4ccc(/C=C/C5=[N+]6C(=Cc7ccc(-c8cccs8)n7[B-]6(F)F)C=C5)cc4)ncnc32)[C@H](O)[C@@H]1O
Kd (Adenosine receptor A1 [16]): 16.2 nM

CCCn1c(=O)c2[nH]c(-c3ccc(OCC(=O)NCCNC(=O)CCCCCCC(=O)NCCNC(=O)CCC4=[N+]5C(=Cc6c(C)cc(C)n6[B-]5(F)F)C=C4)cc3)nc2n(CCC)c1=O
Activity [8]: inactive

CCNC(=O)[C@H]1O[C@@H](n2cnc3c(NCCCCNC(=O)CCCCCCCNS(=O)(=O)c4cccc5c(N(C)C)cccc45)ncnc32)[C@H](O)[C@@H]1O
Activity [8]: inactive

CCNC(=O)[C@H]1O[C@@H](n2cnc3c(NCCNC(=O)COc4ccc(/C=C/C5=[N+]6C(=Cc7ccc(-c8cccs8)n7[B-]6(F)F)C=C5)cc4)ncnc32)[C@H](O)[C@@H]1O
Kd (Adenosine receptor A1 [16]): 14.5 nM

CCNC(=O)[C@H]1O[C@@H](n2cnc3c(NCCCCNC(=O)CCCCCN4/C(=C/C=C/C=C/C5=[N+](CC)c6cc(S(=O)(=O)O)ccc6C5(C)C)C(C)(C)c5cc(S(=O)(=O)[O-])ccc54)ncnc32)[C@H](O)[C@@H]1O
Activity [8]: inactive

N=c1ccc2c(-c3ccc(C(=O)NCCCCCCn4cc(NCCNC(=O)COc5ccc(CCCn6ncc7c6nc(N)n6nc(-c8ccco8)nc76)cc5)nn4)cc3C(=O)O)c3ccc(N)c(S(=O)(=O)O)c3oc-2c1S(=O)(=O)O
Kd (Adenosine receptor A2a [17]): 16.5 nM

CCNC(=O)[C@H]1O[C@@H](n2cnc3c(NCCOCCOCCNC(=O)COc4ccc(/C=C/C5=[N+]6C(=Cc7ccc(-c8cccs8)n7[B-]6(F)F)C=C5)cc4)ncnc32)[C@H](O)[C@@H]1O
Kd (Adenosine receptor A1 [16]): 17.8 nM

Nc1nc2ccc(Cl)cc2c2nc(-c3ccco3)nn12 [CGS-15943]
Ki (Adenosine receptor A3 [18]): 35 nM

CCNC(=O)[C@H]1O[C@@H](n2cnc3c(NCCCCNc4ccc([N+](=O)[O-])c5nonc45)ncnc32)[C@H](O)[C@@H]1O
Ki (Adenosine receptor A3 [11]): 389 nM
Ki (Adenosine receptor A2a [12]): > 10000 nM
Ki (Adenosine receptor A1 [13]): > 10000 nM

Nc1nc(NCCc2ccc(O)cc2)nc2nc(-c3ccco3)nn12 [ZM-241385]
Ki (Adenosine receptor A3 [18]): 743 nM

CCNC(=O)[C@H]1O[C@@H](n2cnc3c(NCCCCCCCCNC(=O)COc4ccc(/C=C/C5=[N+]6C(=Cc7ccc(-c8cccs8)n7[B-]6(F)F)C=C5)cc4)ncnc32)[C@H](O)[C@@H]1O
Kd (Adenosine receptor A1 [16]): 14.1 nM

Cn1cc2c(nc(NCCCNC(=S)Nc3ccc(C4c5ccc(O)cc5OC5=CC(=O)C=CC54)c(C(=O)O)c3)n3nc(-c4ccco4)nc23)n1 (stereo not given)
inhibition [10]: 5%
Ki (Adenosine receptor A3 [1]): 2400 nM
Ki (Adenosine receptor A2a [2]): 2510 nM

CCCn1c(=O)c2[nH]c(-c3ccc(OCC(=O)NCCNC(=S)Nc4ccc(C5c6ccc(O)cc6OC6=CC(=O)C=CC65)c(C(=O)O)c4)cc3)nc2n(CCC)c1=O (stereo not given)
Ki (Adenosine receptor A1 [6]): 9.33 nM
Ki (Adenosine receptor A1 [7]): 126 nM

CCNC(=O)[C@H]1O[C@@H](n2cnc3c(NCCCCCCCCCCCNC(=O)COc4ccc(/C=C/C5=[N+]6C(=Cc7ccc(-c8cccs8)n7[B-]6(F)F)C=C5)cc4)ncnc32)[C@H](O)[C@@H]1O
Kd (Adenosine receptor A1 [16]): 12.9 nM
